According to patent US9328386B2, “Markers for susceptibility to an inhibitor of an Src-family kinase” (Evotec (München) GmbH, priority 2011, dated 2016):
pIC50: −log10 of the molar value. Read-outs that look alike come from different tables or passages of the source. Each block holds one molecule with its values, some of them ahead of it.

How the values were obtained:
Test in all cases: Cellular growth inhibition (CellTiter Glo viability assay)
Format in all cases: cell-based
Calu6 NSCLC cell line = conditions: Homo sapiens
H1395 NSCLC cell line = conditions: Homo sapiens
H157 NSCLC cell line = conditions: Homo sapiens
H1648 NSCLC cell line = conditions: Homo sapiens
H1666 NSCLC cell line = conditions: Homo sapiens
H2009 NSCLC cell line = conditions: Homo sapiens
H2030 NSCLC cell line = conditions: Homo sapiens
H2077 NSCLC cell line = conditions: Homo sapiens
H2172 NSCLC cell line = conditions: Homo sapiens
H460 NSCLC cell line = conditions: Homo sapiens
H520 NSCLC cell line = conditions: Homo sapiens
LouNH91 NSCLC cell line = conditions: Homo sapiens
HCC366 NSCLC cell line = conditions: Homo sapiens
HCC4006 NSCLC cell line = conditions: Homo sapiens
HCC78 NSCLC cell line = conditions: Homo sapiens
H322M NSCLC cell line = conditions: Homo sapiens, NCI-H322M
HCC2279 NSCLC cell line = conditions: Homo sapiens
PC9 NSCLC cell line = conditions: Homo sapiens
[1] = Calu-6, 96 hours of treatment, read-out: GI50
[2] = NCI-H1395, H1395, 96 hours of treatment, read-out: GI50
[3] = NCI-H157, H157, 96 hours of treatment, read-out: GI50
[4] = NCI-H1648, H1648, 96 hours of treatment, read-out: GI50
[5] = NCI-H1666, H1666, 96 hours of treatment, read-out: GI50
[6] = NCI-H2009, H2009, 96 hours of treatment, read-out: GI50
[7] = NCI-H2030, H2030, 96 hours of treatment, read-out: GI50
[8] = 96 h, read-out: GI50 this paper
[9] = H2077, 96 hours of treatment, read-out: GI50
[10] = NCI-H2172, H2172, 96 hours of treatment, read-out: GI50
[11] = NCI-H460, H460, 96 hours of treatment, read-out: GI50
[12] = NCI-H520, H520, 96 hours of treatment, read-out: GI50
[13] = LOU-NH91, LouNH91, 96 hours of treatment, read-out: GI50
[14] = HCC366, 96 hours of treatment, read-out: GI50
[15] = HCC4006, 96 hours of treatment, read-out: GI50
[16] = HCC78, 96 hours of treatment, read-out: GI50
[17] = H322M, 96 hours of treatment, read-out: GI50
[18] = HCC2279, 96 hours of treatment, read-out: GI50
[19] = PC9, 96 hours of treatment, read-out: GI50

SMILES: Cc1nc(Nc2ncc(C(=O)Nc3c(C)cccc3Cl)s2)cc(N2CCN(CCO)CC2)n1 [dasatinib, N-(2-chloro-6-methylphenyl)-2-[[6-[4-(2-hydroxyethyl)piperazin-1-yl]-2-methylpyrimidin-4-yl]amino]-1,3-thiazole-5-carboxamide]
GI50 (Calu6 NSCLC cell line; Calu-6, 96 h, read-out: GI50 this paper): 2800 nM
pIC50 (Calu6 NSCLC cell line; Calu-6, read-out: Sensitivity Dasatinib): < 6.00
GI50 (Calu6 NSCLC cell line; [1]): 2800 nM
GI50 (H1395 NSCLC cell line; NCI-H1395, 96 h, read-out: GI50 this paper): 4700 nM
pIC50 (H1395 NSCLC cell line; NCI-H1395, read-out: Sensitivity Dasatinib): < 6.00
GI50 (H1395 NSCLC cell line; [2]): 4700 nM
GI50 (H157 NSCLC cell line; NCI-H157, 96 h, read-out: GI50 this paper): 2630 nM
pIC50 (H157 NSCLC cell line; NCI-H157, read-out: Sensitivity Dasatinib): < 6.00
GI50 (H157 NSCLC cell line; [3]): 2630 nM
GI50 (H1648 NSCLC cell line; NCI-H1648, 96 h, read-out: GI50 this paper): 79 nM
pIC50 (H1648 NSCLC cell line; NCI-H1648, read-out: Sensitivity Dasatinib): > 6.00
GI50 (H1648 NSCLC cell line; [4]): 79 nM
GI50 (H1666 NSCLC cell line; NCI-H1666, 96 h, read-out: GI50 this paper): 76 nM
pIC50 (H1666 NSCLC cell line; NCI-H1666, read-out: Sensitivity Dasatinib): > 6.00
GI50 (H1666 NSCLC cell line; [5]): 76 nM
GI50 (H2009 NSCLC cell line; NCI-H2009, 96 h, read-out: GI50 this paper): 85 nM
pIC50 (H2009 NSCLC cell line; NCI-H2009, read-out: Sensitivity Dasatinib): > 6.00
GI50 (H2009 NSCLC cell line; [6]): 85 nM
GI50 (H2030 NSCLC cell line; NCI-H2030, 96 h, read-out: GI50 this paper): 22 nM
pIC50 (H2030 NSCLC cell line; NCI-H2030, read-out: Sensitivity Dasatinib): > 6.00
GI50 (H2030 NSCLC cell line; [7]): 22 nM
GI50 (H2077 NSCLC cell line; [8]): 4750 nM
pIC50 (H2077 NSCLC cell line; read-out: Sensitivity Dasatinib, H2077): < 6.00
GI50 (H2077 NSCLC cell line; [9]): 4750 nM
GI50 (H2172 NSCLC cell line; NCI-H2172, 96 h, read-out: GI50 this paper): 5850 nM
pIC50 (H2172 NSCLC cell line; NCI-H2172, read-out: Sensitivity Dasatinib): < 6.00
GI50 (H2172 NSCLC cell line; [10]): 5850 nM
GI50 (H460 NSCLC cell line; NCI-H460, 96 h, read-out: GI50 this paper): 3900 nM
pIC50 (H460 NSCLC cell line; NCI-H460, read-out: Sensitivity Dasatinib): < 6.00
GI50 (H460 NSCLC cell line; [11]): 3900 nM
GI50 (H520 NSCLC cell line; NCI-H520, 96 h, read-out: GI50 this paper): 1430 nM
pIC50 (H520 NSCLC cell line; NCI-H520, read-out: Sensitivity Dasatinib): < 6.00
GI50 (H520 NSCLC cell line; [12]): 1430 nM
GI50 (LouNH91 NSCLC cell line; LOU-NH91, 96 h, read-out: GI50 this paper): 68 nM
pIC50 (LouNH91 NSCLC cell line; LOU-NH91, read-out: Sensitivity Dasatinib, LouNH91): > 6.00
GI50 (LouNH91 NSCLC cell line; [13]): 68 nM
GI50 (HCC366 NSCLC cell line; HCC366, 96 h, read-out: GI50 this paper): 17 nM
pIC50 (HCC366 NSCLC cell line; HCC366, read-out: Sensitivity Dasatinib): > 6.00
GI50 (HCC366 NSCLC cell line; [14]): 17 nM
GI50 (HCC4006 NSCLC cell line; HCC4006, 96 h, read-out: GI50 this paper): 950 nM
pIC50 (HCC4006 NSCLC cell line; HCC4006, read-out: Sensitivity Dasatinib): > 6.00
GI50 (HCC4006 NSCLC cell line; [15]): 950 nM
GI50 (HCC78 NSCLC cell line; HCC78, 96 h, read-out: GI50 this paper): 17000 nM
pIC50 (HCC78 NSCLC cell line; HCC78, read-out: Sensitivity Dasatinib): < 6.00
GI50 (HCC78 NSCLC cell line; [16]): 17000 nM
GI50 (H322M NSCLC cell line; [8]): 311 nM
pIC50 (H322M NSCLC cell line; read-out: Sensitivity Dasatinib): > 6.00
GI50 (H322M NSCLC cell line; [17]): 311 nM
GI50 (HCC2279 NSCLC cell line; [8]): 45 nM
pIC50 (HCC2279 NSCLC cell line; read-out: Sensitivity Dasatinib, HCC2279): > 6.00
GI50 (HCC2279 NSCLC cell line; [18]): 45 nM
GI50 (PC9 NSCLC cell line; [8]): 20 nM
pIC50 (PC9 NSCLC cell line; PC-9, read-out: Sensitivity Dasatinib, PC9): > 6.00
GI50 (PC9 NSCLC cell line; [19]): 20 nM

pIC50 (Calu6 NSCLC cell line; Calu-6, read-out: Sensitivity Saracatinib): < 5.46
GI50 (Calu6 NSCLC cell line; [1]): 30000 nM
pIC50 (H1395 NSCLC cell line; NCI-H1395, read-out: Sensitivity Saracatinib): < 5.46
GI50 (H1395 NSCLC cell line; [2]): 31700 nM
pIC50 (H157 NSCLC cell line; NCI-H157, read-out: Sensitivity Saracatinib): < 5.46
GI50 (H157 NSCLC cell line; [3]): 13900 nM
pIC50 (H1648 NSCLC cell line; NCI-H1648, read-out: Sensitivity Saracatinib): > 5.46
GI50 (H1648 NSCLC cell line; [4]): 1510 nM
pIC50 (H1666 NSCLC cell line; NCI-H1666, read-out: Sensitivity Saracatinib): > 5.46
GI50 (H1666 NSCLC cell line; [5]): 2200 nM
pIC50 (H2009 NSCLC cell line; NCI-H2009, read-out: Sensitivity Saracatinib): < 5.46
GI50 (H2009 NSCLC cell line; [6]): 4310 nM
pIC50 (H2030 NSCLC cell line; NCI-H2030, read-out: Sensitivity Saracatinib): > 5.46
GI50 (H2030 NSCLC cell line; [7]): 443 nM
pIC50 (H2077 NSCLC cell line; read-out: Sensitivity Saracatinib, H2077): < 5.46
GI50 (H2077 NSCLC cell line; [9]): 14800 nM
pIC50 (H2172 NSCLC cell line; NCI-H2172, read-out: Sensitivity Saracatinib): < 5.46
GI50 (H2172 NSCLC cell line; [10]): 28500 nM
pIC50 (H460 NSCLC cell line; NCI-H460, read-out: Sensitivity Saracatinib): < 5.46
GI50 (H460 NSCLC cell line; [11]): 12100 nM
pIC50 (H520 NSCLC cell line; NCI-H520, read-out: Sensitivity Saracatinib): < 5.46
GI50 (H520 NSCLC cell line; [12]): 4560 nM
pIC50 (HCC366 NSCLC cell line; HCC366, read-out: Sensitivity Saracatinib): > 5.46
GI50 (HCC366 NSCLC cell line; [14]): 1240 nM
pIC50 (HCC4006 NSCLC cell line; HCC4006, read-out: Sensitivity Saracatinib): > 5.46
GI50 (HCC4006 NSCLC cell line; [15]): 132 nM
pIC50 (HCC78 NSCLC cell line; HCC78, read-out: Sensitivity Saracatinib): > 5.46
GI50 (HCC78 NSCLC cell line; [16]): 267 nM
pIC50 (H322M NSCLC cell line; read-out: Sensitivity Saracatinib): > 5.46
GI50 (H322M NSCLC cell line; [17]): 876 nM
pIC50 (HCC2279 NSCLC cell line; read-out: Sensitivity Saracatinib, HCC2279): > 5.46
GI50 (HCC2279 NSCLC cell line; [18]): 660 nM
pIC50 (PC9 NSCLC cell line; PC-9, read-out: Sensitivity Saracatinib, PC9): > 5.46
GI50 (PC9 NSCLC cell line; [19]): 147 nM
SMILES: CN1CCN(CCOc2cc(OC3CCOCC3)c3c(Nc4c(Cl)ccc5c4OCO5)ncnc3c2)CC1 [saracatinib, N-(5-Chloro-1,3-benzodioxol-4-yl)-7-[2-(4-methyl-1-piperazinyl)ethoxy]-5-[(tetrahydro-2H-pyran-4-yl)oxy]-4-quinazolinamine]
pIC50 (LouNH91 NSCLC cell line; LOU-NH91, read-out: Sensitivity Saracatinib, LouNH91): > 5.46
GI50 (LouNH91 NSCLC cell line; [13]): 1180 nM
